Experimental findings from patent US11505575B2, “Cyclic polypeptides for PCSK9 inhibition” (Merck Sharp & Dohme LLC, priority 2018, dated 2022) are described below.

In assay [1] the target is human PCSK9 / human LDLR EGFa domain interaction (Homo sapiens, UniProt Q8NBP7). As to the kind of experiment: TR-FRET assay of inhibition of the PCSK9-LDLR protein-protein interaction. The assay is classed as binding. The following applies: 20 nM biotinylated human PCSK9 + 20 nM his-tagged human LDLR EGFa domain, 2 hours room temperature. The essentials: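 Biotinylated human PCSK9 (20 nM) and His-tagged human LDLR EGFa domain (20 nM) incubated with Ulight-streptavidin and Eu-anti-His (5 nM each), 2 h at room temperature, in HEPES pH buffer with 5 mM CaCl2. TR-FRET read-out; IC50 from 4-parameter fit of dose-response.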
Background: Time-resolved FRET reads energy transfer from a long-lived donor to a nearby acceptor.

The target in a further assay is T1, PCSK9 (Homo sapiens, UniProt Q8NBP7).
T1 construct: biotin (biotinylated)
Description: PCSK9 Alexa FRET Standard assay (displacement of AlexaFluor647-tagged cyclic peptide Reagent A). The assay is classed as binding. Particulars: 0.5 nM PCSK9, 20 nM AF cyclic peptide Reagent A. Here is the method:
A solution containing 1 nM biotinylated PCSK9+2.5 nM Lance Streptavidin Europium (Strep-Eu) was made in 50 mM HEPES pH 7.4, 0.15 M NaCl, 5 mM CaCl2, 0.01% BSA, and 0.01% Surfactant P20. A separate solution containing 40 nM of the AlexaFluor tagged cyclic peptide was made in the same buffer system. An Echo was used to transfer 0.750 ul of compound to an assay plate followed by the addition of 15 ul of PCSK9+Stept-Eu and 15 ul of AF peptide. The final assay volume was 30.750 ul containing 0.5 nM PCSK9, 1.25 nM Strep-Eu, and 20 nM AF cyclic peptide. The reaction was incubated at room temperature for at least two hours prior to fluorescence measurements using an Envision Multilabel Reader. IC50 values were determined by fitting data to a sigmoidal dose-response curve using nonlinear regression. Ki was then calculated from the IC50 and the KD of AF cyclic peptide. Counts (B-counts) of the europium-labeled PCSK9 were followed to observe if compounds were […]. A fall off of the B-counts likely indicated a false positive of inhibition. Data from this procedure was reported as “A=‘numerical value’ (nanomolar)”

*1 amine or outer side, *2 acyl side, *3 side chain or, on linkers, in order; H or OH if unused. Where a SMILES comes first, the peptide text is derived from it. Bridges are numbered along the chain shown (N, C = ends). [ ]: non-standard residue; d: D form. αMeNva(5-ylidene) = C[C@@](CCC=[*:3])(N[*:1])C(=O)[*:2]; Trp(βS-Me) = C[C@@H](c1c[nH]c2ccccc12)[C@H](N)C(=O)O; Phe(4-guanidino) = N=C(N)Nc1ccc(C[C@H](N)C(=O)O)cc1; X4 = O=C([C@H](Cc1cc2cc(F)ccc2[nH]1)N[*:1])[*:2]; X3 = N=C(N)NCc1ccc(C[C@H](N[*:1])C(=O)[*:2])cc1; Trp(7-aza) = N[C@@H](Cc1c[nH]c2ncccc12)C(=O)O; Phe(4-CH2NH2) = NCc1ccc(C[C@H](N)C(=O)O)cc1; X1 = C[C@@](CCCCC=[*:3])(N[*:1])C(=O)[*:2]; mXylylene = c1cc(C[*:1])cc(C[*:2])c1; Aad = N[C@@H](CCCC(=O)O)C(=O)O; Agp = N=C(N)NC[C@H](N)C(=O)O; Chg = N[C@H](C(=O)O)C1CCCCC1; Tle = CC(C)(C)[C@H](N)C(=O)O; Nva = CCC[C@H](N)C(=O)O; Aib = CC(C)(N)C(=O)O; Mpa = O=C(O)CCS

Sequence of human PCSK9 / human LDLR EGFa domain interaction (Q8NBP7 153-692): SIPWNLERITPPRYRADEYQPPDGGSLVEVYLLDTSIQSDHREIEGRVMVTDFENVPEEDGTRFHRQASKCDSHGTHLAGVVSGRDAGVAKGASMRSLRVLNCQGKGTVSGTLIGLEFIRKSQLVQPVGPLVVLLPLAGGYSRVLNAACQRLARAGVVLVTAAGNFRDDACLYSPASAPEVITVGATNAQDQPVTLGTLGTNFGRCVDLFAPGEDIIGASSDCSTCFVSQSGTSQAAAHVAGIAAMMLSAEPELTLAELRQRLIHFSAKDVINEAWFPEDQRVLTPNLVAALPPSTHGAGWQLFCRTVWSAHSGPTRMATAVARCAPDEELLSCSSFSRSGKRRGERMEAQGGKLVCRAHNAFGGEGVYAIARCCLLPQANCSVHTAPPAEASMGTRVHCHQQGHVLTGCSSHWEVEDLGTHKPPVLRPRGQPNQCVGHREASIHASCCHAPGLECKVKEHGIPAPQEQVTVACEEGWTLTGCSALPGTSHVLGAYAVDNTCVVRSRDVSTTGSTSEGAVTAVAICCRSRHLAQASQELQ
Sequence of human PCSK9 / human LDLR EGFa domain interaction (Q8NBP7 31-152 partner limits assumed): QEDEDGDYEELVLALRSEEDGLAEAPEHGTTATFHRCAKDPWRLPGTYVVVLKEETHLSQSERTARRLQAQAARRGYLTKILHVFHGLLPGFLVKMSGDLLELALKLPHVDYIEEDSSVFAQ
T1 sequence (Q8NBP7 153-692): as the sequence (Q8NBP7 153-692) above

Regarding `CCC[C@@H]1NC(=O)[C@H](Cc2c[nH]c3ncccc23)NC(=O)[C@H]([C@@H](C)O)NC(=O)[C@H](Cc2cnc[nH]2)NC(=O)[C@H](Cc2ccc(O)cc2)NC(=O)[C@H](Cc2ccc(CN)cc2)NC(=O)CCSCc2cccc(c2)CSC[C@@H](C(N)=O)NC(=O)[C@H]([C@@H](C)O)NC(=O)[C@H](CCC)NC(=O)[C@H](Cc2ccc(O)cc2)NC(=O)[C@H](CCC(=O)O)NC1=O` [Compound 086] ([Mpa][Phe(4-CH2NH2)]YHT[Trp(7-aza)][Nva]EY[Nva]TC-NH2; linker 1-12 via mXylylene), the IC50 (in assay [1]; on PCSK9) was 100 to 1000 nM each time.
Consider `CCC[C@@H]1NC(=O)[C@H](Cc2c[nH]c3ncccc23)NC(=O)[C@H]([C@@H](C)O)NC(=O)[C@H](CNC(=N)N)NC(=O)[C@H](Cc2ccc(O)cc2)NC(=O)[C@H](Cc2cc3cc(F)ccc3[nH]2)NC(=O)[C@@H](NC(=O)[C@H](Cc2ccc(NC(=N)N)cc2)NC(C)=O)CSCc2cccc(c2)CSC[C@@H](C(N)=O)NC(=O)[C@H]([C@@H](C)O)NC(=O)[C@H](CCC)NC(=O)[C@H](Cc2ccc(O)cc2)NC(=O)[C@H](CCC(=O)O)NC1=O` [Compound 091] (Ac-[Phe(4-guanidino)]C[X4]Y[Agp]T[Trp(7-aza)][Nva]EY[Nva]TC-NH2; linker 2-13 via mXylylene), for which the IC50 in assay [1] fell in the range of 100 to 1000 nM; at PCSK9 it was 1 to 100 nM.
For `CCC[C@@H]1NC(=O)[C@H](Cc2c[nH]c3ncccc23)NC(=O)[C@H]([C@@H](C)O)NC(=O)[C@H](Cc2cnc[nH]2)NC(=O)[C@H](Cc2ccc(O)cc2)NC(=O)[C@H]([C@@H](C)c2c[nH]c3ccccc23)NC(=O)CCSCc2cccc(c2)CSC[C@@H](C(N)=O)NC(=O)[C@H]([C@@H](C)O)NC(=O)[C@H](CCC)NC(=O)[C@H](Cc2ccc(O)cc2)NC(=O)[C@H](CCC(=O)O)NC1=O` [Compound 097] ([Mpa][Trp(βS-Me)]YHT[Trp(7-aza)][Nva]EY[Nva]TC-NH2; linker 1-12 via mXylylene), the IC50 (in assay [1]; on PCSK9) was 1 to 100 nM each time.
Regarding `CCC[C@@H]1NC(=O)[C@H](Cc2c[nH]c3ncccc23)NC(=O)[C@H]([C@@H](C)O)NC(=O)[C@H](Cc2cnc[nH]2)NC(=O)[C@H](Cc2ccc(O)cc2)NC(=O)[C@H](C(C)(C)C)NC(=O)[C@@H](NC(=O)[C@H](Cc2ccc(CNC(=N)N)cc2)NC(C)=O)CSCc2cccc(c2)CSC[C@@H](C(N)=O)NC(=O)[C@H]([C@@H](C)O)NC(=O)[C@H](CCC)NC(=O)[C@H](Cc2ccc(O)cc2)NC(=O)[C@H](CCC(=O)O)NC1=O` [Compound 098] (Ac-[X3]C[Tle]YHT[Trp(7-aza)][Nva]EY[Nva]TC-NH2; linker 2-13 via mXylylene), the IC50 was 21000 to 50000 nM in assay [1] and 100 to 1000 nM on PCSK9.
On the same counts, the results for `CCC[C@@H]1NC(=O)[C@H](Cc2ccc(O)cc2)NC(=O)[C@H](C)NC(=O)[C@]2(C)CC/C=C\CCCC[C@](C)(NC1=O)C(=O)N[C@H](C(N)=O)CCCCNC(=O)CCC[C@H](NC(C)=O)C(=O)N[C@@H](C(C)(C)C)C(=O)N[C@@H](Cc1ccc(O)cc1)C(=O)N1CCC[C@H]1C(=O)N[C@@H]([C@@H](C)O)C(=O)N[C@@H](Cc1c[nH]c3ncccc13)C(=O)N2` [Compound 104] (Ac-[Aad][Tle]YPT[Trp(7-aza)][αMeNva(5-ylidene)]AY[Nva][X1]K-NH2; lactam 1-12; staple (Z) 7-11) are 1000 to 12100 nM and 100 to 1000 nM.
`CCC[C@@H]1NC(=O)[C@H](Cc2c[nH]c3ncccc23)NC(=O)[C@H]([C@@H](C)O)NC(=O)[C@@H]2CCCCNC(=O)CC[C@H](NC1=O)C(=O)N[C@@H](Cc1ccc(O)cc1)C(=O)N[C@@H](C1CCCCC1)C(=O)N[C@@H]([C@@H](C)O)C(=O)N[C@@H](C(N)=O)CSCc1cccc(c1)CSCCC(=O)N[C@@H](C(C)(C)C)C(=O)N[C@@H](Cc1ccc(O)cc1)C(=O)N2` [Compound 107] ([Mpa][Tle]YKT[Trp(7-aza)][Nva]EY[Chg]T[dC]-NH2; linker 1-12 via mXylylene; lactam 4-8): the IC50 (in assay [1]; at PCSK9) was 1 to 100 nM each time.
Turning to `CCC[C@@H]1NC(=O)[C@H](Cc2ccc(O)cc2)NC(=O)[C@@H]2CCC(=O)NCCCC[C@H](NC(=O)[C@H](Cc3ccc(O)cc3)NC(=O)[C@H](C(C)(C)C)NC(=O)CCSCc3cccc(c3)CSC[C@@H](C(N)=O)NC(=O)[C@H]([C@@H](C)O)NC1=O)C(=O)N[C@@H]([C@@H](C)O)C(=O)N[C@@H](Cc1c[nH]c3ncccc13)C(=O)NC(C)(C)C(=O)N2` [Compound 110] ([Mpa][Tle]YKT[Trp(7-aza)][Aib]EY[Nva]TC-NH2; linker 1-12 via mXylylene; lactam 4-8), the IC50 (in assay [1]; at PCSK9) was 1 to 100 nM each time.

What is called IC50 is the concentration at which inhibition is half-maximal.
